Test systems include CCRF-CEM leukemia; DMS 114 small cell lung; HCT-116 colon; HT29 colon; LOX IMVI melanoma; M19-MEL melanoma; MOLT-4 leukemia; U251 CNS; BT-549 breast; NCI/ADR-RES ovarian.
Holding throughout (test): NCI tumour cell line growth inhibition, 48 h

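Compound exposure: 48 hours, 5 concentrations, 96-well plates. GI50: concentration for 50% inhibition of growth. The concentration for full growth arrest is given as TGI.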

On to `O=C1CCC(=O)N2CCCCN12`, for which the TGI in the test with CCRF-CEM leukemia, with DMS 114 small cell lung, in the test with HCT-116 colon, in the test on HT29 colon, in the test with LOX IMVI melanoma and in the test with M19-MEL melanoma was > 100 µM throughout. Besides, the TGI in the test on MOLT-4 leukemia and in the test with U251 CNS was > 100 µM in each case.

`O=C(O)CNS(=O)(=O)c1ccc(NCc2ccccc2)cc1`: the TGI in the test with CCRF-CEM leukemia, with DMS 114 small cell lung, in the test with HCT-116 colon, in the test on HT29 colon, in the test with LOX IMVI melanoma and in the test with M19-MEL melanoma was > 100 µM throughout. Further, the TGI in the test on MOLT-4 leukemia and in the test on U251 CNS was > 100 µM throughout.

On to `COc1ccc(/C=C/CN(C)CCc2ccccc2)cc1OC`, for which the TGI in the test with DMS 114 small cell lung, in the test with HCT-116 colon, in the test with HT29 colon, in the test on M19-MEL melanoma, with MOLT-4 leukemia and in the test on U251 CNS was > 100 µM in each case.

For `COC(=O)C1Cc2c(n(Cc3ccccc3)c3ccccc23)C(CCC(=O)O)N1C(C)C` (configuration not stated), the TGI in the test on CCRF-CEM leukemia, in the test with DMS 114 small cell lung, in the test with HCT-116 colon, with HT29 colon, in the test on LOX IMVI melanoma and in the test with M19-MEL melanoma was > 100 µM each time. The TGI with MOLT-4 leukemia and in the test on U251 CNS was > 100 µM each time.

As for `C/C(CC(=O)Nc1cc(Cl)c(Cl)cc1Cl)=N\NC(N)=O`, the TGI in the test on CCRF-CEM leukemia, in the test with DMS 114 small cell lung, with HCT-116 colon, in the test with HT29 colon, with LOX IMVI melanoma and in the test with M19-MEL melanoma was > 100 µM throughout. The TGI in the test on MOLT-4 leukemia and with U251 CNS was > 100 µM throughout.

`CCOC(=O)C1=C(OC(OCC)C(CC)[Se]c2ccccc2)CCCC1` (configuration not stated): the TGI in the test on CCRF-CEM leukemia came to 38.7 µM; in the test with HCT-116 colon, 45 µM; in the test with HT29 colon, 62 µM; in the test with LOX IMVI melanoma, 18.7 µM; in the test on M19-MEL melanoma it was 33 µM; in the test on MOLT-4 leukemia it was 52.1 µM. The compound further displayed a TGI with U251 CNS of 31 µM.

Consider `CCOC(=O)[C]1([Bi]([CH3])[CH3])N=NC(C(=O)OC)=C1C(=O)OC` (configuration not stated), for which the GI50 is 11.3 µM in the test with CCRF-CEM leukemia; 20 µM in the test on DMS 114 small cell lung; 19.3 µM with HT29 colon; 17.6 µM in the test with M19-MEL melanoma; 23.3 µM in the test with MOLT-4 leukemia; > 100 µM in the test on U251 CNS. Also, the TGI with CCRF-CEM leukemia was 37.6 µM; with DMS 114 small cell lung, 40 µM; in the test on HT29 colon, 39.4 µM; in the test on M19-MEL melanoma, 32.5 µM; in the test on MOLT-4 leukemia, 63.9 µM; in the test with U251 CNS, > 100 µM.

As to `Oc1ccc(CN2CCC(N3CCCCC3)CC2)c2cccnc12`, the GI50 in the test on BT-549 breast was 11.5 µM; with CCRF-CEM leukemia, 36.1 µM; with HCT-116 colon, 4.49 µM; in the test on HT29 colon it was 93.7 µM; in the test on LOX IMVI melanoma, 5.32 µM; in the test on MOLT-4 leukemia, 19.9 µM. Besides, the figures for the GI50 with NCI/ADR-RES ovarian and in the test with U251 CNS were 24.2 µM and 5.57 µM, respectively. Besides, the TGI in the test with BT-549 breast, in the test on CCRF-CEM leukemia, in the test with HCT-116 colon, in the test on HT29 colon, with LOX IMVI melanoma and with MOLT-4 leukemia was > 100 µM each time. In addition, the TGI in the test with NCI/ADR-RES ovarian and with U251 CNS was > 100 µM throughout.

For the compound `COC(=O)c1c/c(=N\NC(=O)CC(=O)Nc2ccccc2OC)c2ccccc2o1`, the TGI with DMS 114 small cell lung, in the test on HCT-116 colon, in the test with HT29 colon, with LOX IMVI melanoma, with M19-MEL melanoma and in the test on MOLT-4 leukemia was > 100 µM in each case. Further, the TGI in the test with U251 CNS is > 100 µM.

For `OCC(O)CC[CH2][Sn]([Br])([c]1ccccc1)[c]1ccccc1` (configuration not stated), the GI50 in the test with CCRF-CEM leukemia, with HCT-116 colon, with HT29 colon, with LOX IMVI melanoma, in the test with M19-MEL melanoma and in the test with U251 CNS was > 100 µM throughout. Further, the TGI in the test with CCRF-CEM leukemia, in the test with HCT-116 colon, in the test with HT29 colon, in the test with LOX IMVI melanoma, with M19-MEL melanoma and with U251 CNS was > 100 µM throughout.

In the case of `COC(=O)[C@]12CC[C@@H](C)[C@H](C)[C@@H]1C1=CC[C@@H]3[C@@]4(C)C/C(=N\O)[C@H](O)[C@@]5(C)COC(=C45)C[C@@]3(C)[C@]1(C)CC2`, the GI50 was 15.7 µM with BT-549 breast; 2.79 µM with CCRF-CEM leukemia; 2.42 µM with HCT-116 colon; 2.88 µM with HT29 colon; 4.6 µM in the test with LOX IMVI melanoma; 2.97 µM with MOLT-4 leukemia. Further, the GI50 was 2.61 µM in the test with NCI/ADR-RES ovarian and 3.02 µM in the test with U251 CNS. Further, the TGI in the test with BT-549 breast is 34.8 µM; in the test with CCRF-CEM leukemia, 8.83 µM; with HCT-116 colon, 7.11 µM; in the test on HT29 colon, 9.31 µM; in the test on LOX IMVI melanoma it was 17 µM; in the test with MOLT-4 leukemia it was 10.8 µM. Also, the figures for the TGI in the test with NCI/ADR-RES ovarian and in the test on U251 CNS were 7.88 µM and 9.79 µM, respectively.

With `CC/C(=C(/c1ccc(O)cc1)c1ccc(OCCNC)cc1)c1ccccc1`, the GI50 was 3.37 µM in the test with BT-549 breast; 2.39 µM in the test with CCRF-CEM leukemia; 1.68 µM in the test with HCT-116 colon; 2.02 µM with HT29 colon; 1.75 µM with LOX IMVI melanoma; 2.46 µM with MOLT-4 leukemia. Further, the GI50 with NCI/ADR-RES ovarian was 2.32 µM; in the test on U251 CNS, 1.54 µM. In addition, the TGI with BT-549 breast amounted to 13.9 µM; with CCRF-CEM leukemia it was 6.88 µM; with HCT-116 colon, 3.12 µM; in the test on HT29 colon, 3.83 µM; in the test with LOX IMVI melanoma it was 3.17 µM; with MOLT-4 leukemia, 7.14 µM. Besides, the TGI with NCI/ADR-RES ovarian worked out at 5.85 µM; in the test with U251 CNS, 2.93 µM.

For `CCC(C)c1c(Cl)nc(Cl)nc1Cl` (configuration not stated), the TGI was 4.65 µM in the test with BT-549 breast; > 100 µM in the test on CCRF-CEM leukemia; 17.9 µM in the test with HCT-116 colon; 24.1 µM in the test with HT29 colon; > 100 µM in the test with LOX IMVI melanoma; > 100 µM in the test with MOLT-4 leukemia. Further, the TGI with NCI/ADR-RES ovarian is > 100 µM; with U251 CNS, 15.4 µM.
